One assay concerns E. Coli 0157. Kind of assay: Growth and survival of E. Coli 0157 in molten wax composition. In kind it is cell-based. As for the experimental part:
(§1) In its simplest form, the wax composition according to the present invention comprises a wax component and an antimicrobial component. The preferred wax is conventional, physio-therapy-grade paraffin wax that is solid at room temperature and has a melting point around 120° F. The preferred antimicrobial agent or component is triclosan, which is a phenolic, broad-spectrum antimicrobial that is generally regarded as safe for use on human skin, and even for ingestion by humans in small amounts. It is available from several sources, including Ciba Specialty Chemicals Corporation, 4090 Premier Drive, High Point, N.C. 27265. […] These bacteria were selected for testing as common human pathogens that are commonly found on the hands. Additionally, these pathogens also model the “survivability” of other pathogens that could be found in the melted wax.
(§2) This is the preferred concentration of the triclosan antimicrobial in the molten wax composition according to the present invention. As disclosed in connection with the below examples, this is about 0.18-0.2% by weight of the total composition.

Another assay relates to human pathogens. Nature of the assay: Growth of pathogens in molten wax composition containing triclosan. In kind it is cell-based. As for the experimental part: as §1, §2
The foregoing examples vary primarily in their fragrance and coloration. They are by way of example only and not intended to be by way of limitation. Variation of other components is regarded as within the invention. […]

A further assay concerns Staphylococcus aurea. Nature of the assay: Growth and survival of Staphylococcus in molten wax composition. The format is cell-based, Staphylococcus aureus. Here is the method:
as §1, §2

A further assay concerns Streptococcus. Kind of assay: Growth and survival of Streptococcus in molten wax composition. The format is cell-based. Particulars: triclosan 500 μg/ml up to 1000 μg/ml in molten wax.
From the text: as §2

Assay [1] deals with Salmonella (both enteritidis and typhimurium strains). Kind of assay: Growth and survival of Salmonella in molten wax composition. In kind it is cell-based. As for the experimental part: as §1, §2
[2] abbreviates: molten wax, versus absence of triclosan.
The mark [3] stands for this setting: triclosan 500 μg/ml up to 1000 μg/ml in molten wax.

As for `Oc1cc(Cl)ccc1Oc1ccc(Cl)cc1Cl` [triclosan], the “time of survivability in wax composition” value (with E. Coli 0157 (molten wax); with Staphylococcus aurea (molten wax); in assay [1] (molten wax)) was “decrease” throughout. Further, the “growth of bacteria in wax composition” value (with E. Coli 0157 (setting [2]); in the assay on Staphylococcus aurea (setting [2]); in assay [1] (setting [2])) was “inhibit growth” each time. For the same molecule, the growth and survival result is “permitted growth and survival” in the assay on E. Coli 0157 (setting [3]); “permitted growth and survival” in the assay with Staphylococcus aurea (setting [3]); “permitted growth and survival” with Streptococcus; “not” in assay [1] (triclosan 500 μg/ml up to 1000 μg/ml in molten wax, Salmonella apparently eliminated by heat alone). The “concentration that inhibits the growth of both pathogens” value in the assay on human pathogens (molten wax composition, about 0.18-0.2% by weight) is 2000 µg/mL. In addition, in the assay with human pathogens (wax maintained at 52.5° C. or 126.5° F., concentrations as low as), the “concentration found to inhibit growth of pathogens in wax” value was ≥ 500 µg/mL.
